Laboratory results as given in patent US8952024B2, “Herbicidal pyrimidone derivatives” (E I du Pont de Nemours and Company, priority 2009, dated 2015).

Key:
Assay type in all cases: in vivo
[1] = tested on: windgrass (Apera spica-venti); assay: Test B postemergence plant response; details: for Windgrass plant response rating (0 to 100 scale): 62 g ai/ha, 0 is no effect, 13 to 15 days
Summary of the method: (§1)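 Plants at the 1- to 4-leaf stage (2 to 18 cm tall), grown in pots of peat moss/vermiculite medium with wetting agent and starter nutrients, received postemergence applications of test chemicals. After 13 to 15 days in a greenhouse, injury was rated visually against untreated controls on a 0 (no effect) to 100 (complete control) scale.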

[2] = tested on: winter barley (Hordeum vulgare); assay: Test B postemergence plant response; details: for Barley plant response rating (0 to 100 scale): 62 g ai/ha, 0 is no effect, 13 to 15 days
Summary of the method: as §1

[3] = tested on: canarygrass (Phalaris minor); assay: Test B postemergence plant response; details: for Canarygrass plant response rating (0 to 100 scale): 62 g ai/ha, 0 is no effect, 13 to 15 days
Summary of the method: as §1

[4] = tested on: chickweed (Stellaria media); assay: Test B postemergence plant response; details: for Chickweed plant response rating (0 to 100 scale): 62 g ai/ha, 0 is no effect, 13 to 15 days
Summary of the method: as §1

[5] = tested on: bermudagrass (Cynodon dactylon); assay: Test B pre-/postemergence plant response; details: for Bermudagrass plant response rating (0 to 100 scale): 62 g ai/ha, 0 is no effect, 13 to 15 days
Summary of the method: (§2)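 Ratings reflect visual comparison with untreated controls 13 to 15 days after application, from 0 (no effect) to 100 (complete control). Application was preemergence to seeded loam/sand soil or postemergence to 1- to 4-leaf plants, with compound in a non-phytotoxic, surfactant-containing solvent.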

[6] = tested on: ragweed (common ragweed, Ambrosia elatior); assay: Test B pre-/postemergence plant response; details: for Ragweed plant response rating (0 to 100 scale): 62 g ai/ha, 0 is no effect, 13 to 15 days
Summary of the method: as §2

[7] = tested on: Italian ryegrass (Lolium multiflorum); assay: Test B pre-/postemergence plant response; details: for Ryegrass, Italian plant response rating (0 to 100 scale): 62 g ai/ha, 0 is no effect, 13 to 15 days
Summary of the method: as §2

[8] = tested on: wheat (Triticum aestivum); assay: Test B pre-/postemergence plant response; details: for Wheat plant response rating (0 to 100 scale): 62 g ai/ha, 0 is no effect, 13 to 15 days
Summary of the method: as §2

[9] = tested on: lambsquarters (Chenopodium album); assay: Test B pre-/postemergence plant response; details: for Lambsquarters plant response rating (0 to 100 scale): 62 g ai/ha, 0 is no effect, 13 to 15 days
Summary of the method: as §2

[10] = tested on: pigweed (Amaranthus retroflexus); assay: Test B pre-/postemergence plant response; details: for Pigweed plant response rating (0 to 100 scale): 62 g ai/ha, 0 is no effect, 13 to 15 days
Summary of the method: as §2

[11] = 31 g ai/ha, postemergence, scale 0 to 100, 0 is no effect, 100 is complete control
[12] = postemergence, 100 is complete control
[13] = Postemergence, 250 g ai/ha, scale 0 to 100 (0 no effect, 100 complete control)
[14] = Postemergence, 125 g ai/ha, visual rating after 13 to 15 days, scale 0 (no effect) to 100 (complete control)

O=C1CCCC(O)=C1C(=O)c1cnc(C2CCCC2)n(-c2ccccc2)c1=O [Compound 92]
Plant response rating, Windgrass [1, 11]: 0
Windgrass plant response rating (0 to 100 scale) [1, 12]: 50
Plant response rating, Windgrass [1, 13]: 90
Plant response rating, Barley [2, 11]: 0
Barley plant response rating (0 to 100 scale) [2, 12]: 0
Plant response rating, Barley [2, 14]: 0
Plant response rating, Barley [2, 13]: 0
Plant response rating, Canarygrass [3, 11]: 0
Canarygrass plant response rating (0 to 100 scale) [3, 12]: 0
Plant response rating, Canarygrass [3, 14]: 0
Plant response rating, Canarygrass [3, 13]: 0
Plant response rating, Chickweed [4, 11]: 90
Chickweed plant response rating (0 to 100 scale) [4, 12]: 95
Plant response rating, Chickweed [4, 14]: 98
Plant response rating, Chickweed [4, 13]: 100
Plant response rating, Bermudagrass [5, 11]: 20
Bermudagrass plant response rating (0 to 100 scale) [5, 12]: 80
Plant response rating, Bermudagrass [5, 14]: 85
Plant response rating, Bermudagrass [5, 13]: 85
Plant response rating, Ragweed [6, 11]: 40
Ragweed plant response rating (0 to 100 scale) [6, 12]: 60
Plant response rating, Ragweed [6, 13]: 75
Plant response rating, Ryegrass, Italian [7, 11]: 0
Ryegrass, Italian plant response rating (0 to 100 scale) [7, 12]: 0
Plant response rating, Ryegrass, Italian [7, 13]: 30
Plant response rating, Wheat [8, 11]: 0
Wheat plant response rating (0 to 100 scale) [8, 12]: 0
Plant response rating, Wheat [8, 13]: 0
Plant response rating, Lambsquarters [9, 11]: 90
Lambsquarters plant response rating (0 to 100 scale) [9, 12]: 98
Plant response rating, Lambsquarters [9, 13]: 100
Plant response rating, Pigweed [10, 11]: 90
Pigweed plant response rating (0 to 100 scale) [10, 12]: 100
Plant response rating, Pigweed [10, 13]: 100

CCCn1c(-c2ccsc2)ncc(C(=O)C2=C(O)CCCC2=O)c1=O [Compound 93]
Plant response rating, Windgrass [1, 11]: 5
Windgrass plant response rating (0 to 100 scale) [1, 12]: 10
Plant response rating, Windgrass [1, 13]: 55
Plant response rating, Barley [2, 11]: 0
Barley plant response rating (0 to 100 scale) [2, 12]: 0
Plant response rating, Barley [2, 14]: 5
Plant response rating, Barley [2, 13]: 5
Plant response rating, Canarygrass [3, 11]: 0
Canarygrass plant response rating (0 to 100 scale) [3, 12]: 0
Plant response rating, Canarygrass [3, 14]: 5
Plant response rating, Canarygrass [3, 13]: 10
Plant response rating, Chickweed [4, 11]: 80
Chickweed plant response rating (0 to 100 scale) [4, 12]: 80
Plant response rating, Chickweed [4, 14]: 95
Plant response rating, Chickweed [4, 13]: 98
Plant response rating, Bermudagrass [5, 11]: 60
Bermudagrass plant response rating (0 to 100 scale) [5, 12]: 75
Plant response rating, Bermudagrass [5, 14]: 85
Plant response rating, Bermudagrass [5, 13]: 85
Plant response rating, Ragweed [6, 11]: 65
Ragweed plant response rating (0 to 100 scale) [6, 12]: 75
Plant response rating, Ragweed [6, 13]: 98
Plant response rating, Ryegrass, Italian [7, 11]: 0
Ryegrass, Italian plant response rating (0 to 100 scale) [7, 12]: 0
Plant response rating, Ryegrass, Italian [7, 13]: 0
Plant response rating, Wheat [8, 11]: 0
Wheat plant response rating (0 to 100 scale) [8, 12]: 0
Plant response rating, Wheat [8, 13]: 5
Plant response rating, Lambsquarters [9, 11]: 85
Lambsquarters plant response rating (0 to 100 scale) [9, 12]: 95
Plant response rating, Lambsquarters [9, 13]: 98
Plant response rating, Pigweed [10, 11]: 90
Pigweed plant response rating (0 to 100 scale) [10, 12]: 95
Plant response rating, Pigweed [10, 13]: 100

CCCCCCn1c(-c2ccccc2)ncc(C(=O)C2=C(O)CCCC2=O)c1=O [Compound 94]
Plant response rating, Windgrass [1, 11]: 0
Windgrass plant response rating (0 to 100 scale) [1, 12]: 40
Plant response rating, Windgrass [1, 13]: 50
Plant response rating, Barley [2, 11]: 0
Barley plant response rating (0 to 100 scale) [2, 12]: 0
Plant response rating, Barley [2, 14]: 5
Plant response rating, Barley [2, 13]: 5
Plant response rating, Canarygrass [3, 11]: 0
Canarygrass plant response rating (0 to 100 scale) [3, 12]: 5
Plant response rating, Canarygrass [3, 14]: 30
Plant response rating, Canarygrass [3, 13]: 35
Plant response rating, Chickweed [4, 11]: 95
Chickweed plant response rating (0 to 100 scale) [4, 12]: 100
Plant response rating, Chickweed [4, 14]: 100
Plant response rating, Chickweed [4, 13]: 100
Plant response rating, Bermudagrass [5, 11]: 80
Bermudagrass plant response rating (0 to 100 scale) [5, 12]: 80
Plant response rating, Bermudagrass [5, 14]: 98
Plant response rating, Bermudagrass [5, 13]: 98
Plant response rating, Ragweed [6, 11]: 40
Ragweed plant response rating (0 to 100 scale) [6, 12]: 45
Plant response rating, Ragweed [6, 13]: 80
Plant response rating, Ryegrass, Italian [7, 11]: 0
Ryegrass, Italian plant response rating (0 to 100 scale) [7, 12]: 0
Plant response rating, Ryegrass, Italian [7, 13]: 10
Plant response rating, Wheat [8, 11]: 0
Wheat plant response rating (0 to 100 scale) [8, 12]: 0
Plant response rating, Wheat [8, 13]: 5
Plant response rating, Lambsquarters [9, 11]: 80
Lambsquarters plant response rating (0 to 100 scale) [9, 12]: 95
Plant response rating, Lambsquarters [9, 13]: 100
Plant response rating, Pigweed [10, 11]: 100
Pigweed plant response rating (0 to 100 scale) [10, 12]: 100
Plant response rating, Pigweed [10, 13]: 100

CCOCCn1c(-c2ccccc2)ncc(C(=O)C2=C(O)CCCC2=O)c1=O [Compound 96]
Plant response rating, Windgrass [1, 11]: 5
Windgrass plant response rating (0 to 100 scale) [1, 12]: 10
Plant response rating, Windgrass [1, 13]: 45
Plant response rating, Barley [2, 11]: 0
Barley plant response rating (0 to 100 scale) [2, 12]: 0
Plant response rating, Barley [2, 14]: 0
Plant response rating, Barley [2, 13]: 5
Plant response rating, Canarygrass [3, 11]: 0
Canarygrass plant response rating (0 to 100 scale) [3, 12]: 5
Plant response rating, Canarygrass [3, 14]: 30
Plant response rating, Canarygrass [3, 13]: 45
Plant response rating, Chickweed [4, 11]: 75
Chickweed plant response rating (0 to 100 scale) [4, 12]: 95
Plant response rating, Chickweed [4, 14]: 98
Plant response rating, Chickweed [4, 13]: 100
Plant response rating, Bermudagrass [5, 11]: 80
Bermudagrass plant response rating (0 to 100 scale) [5, 12]: 95
Plant response rating, Bermudagrass [5, 14]: 95
Plant response rating, Bermudagrass [5, 13]: 98
Plant response rating, Ragweed [6, 11]: 80
Ragweed plant response rating (0 to 100 scale) [6, 12]: 80
Plant response rating, Ragweed [6, 13]: 95
Plant response rating, Ryegrass, Italian [7, 11]: 0
Ryegrass, Italian plant response rating (0 to 100 scale) [7, 12]: 5
Plant response rating, Ryegrass, Italian [7, 13]: 10
Plant response rating, Wheat [8, 11]: 0
Wheat plant response rating (0 to 100 scale) [8, 12]: 5
Plant response rating, Wheat [8, 13]: 15
Plant response rating, Lambsquarters [9, 11]: 90
Lambsquarters plant response rating (0 to 100 scale) [9, 12]: 98
Plant response rating, Lambsquarters [9, 13]: 100
Plant response rating, Pigweed [10, 11]: 90
Pigweed plant response rating (0 to 100 scale) [10, 12]: 95
Plant response rating, Pigweed [10, 13]: 100
